Molecules are shown by their SMILES. In brackets after ≈: the same amount, converted by molar mass.

What all share (assay): Microdilution MIC assay (NCCLS M7-A)
Common to all, as to assay type: cell-based
A general note: Broth dilution looks for growth in wells or tubes with falling amounts of substance.

Assay [1] deals with Klebsiella pneumoniae ATCC 10031. Conditions: strain ATCC10031; for MIC: Klebsiella pneumoniae. How it is done:
(§1) The antibacterial activity was tested by a microdilution assay according to National Committee for Clinical Laboratory Standards, 1998, Methods for dilution antimicrobial susceptibility tests for bacteria that grow aerobically, Approved standard M7-A, NCCLS, Villanova, Pa.
(§2) The minimal inhibition concentrations (MICs) were determined for the following bacterial strains: The Gram-negative strains Pseudomonas aeruginosa SG 137, ATCC 27853, Escherichia coli ATCC 25922, Klebsiella pneumoniae ATCC 10031, Stenotrophomonas maltophilia GN 12873, Serratia marcescens SG 621 as well as for the Gram-positive strain Staphylococcus aureus SG 511.

Assay [2] deals with Serratia marcescens SG 621. Conditions: strain SG621; for MIC: Serratia marcescens, read-out: MIC Serratia marc. SG621. How it is done: as §1, §2
Assay [3] deals with Escherichia coli ATCC 25922. Conditions: strain ATCC 25922; for MIC: Escherichia coli, ATCC25922, read-out: MIC E. coli ATCC 25922. How it is done:
as §1, §2

Assay [4] has as its system Staphylococcus aureus SG 511. Conditions: strain SG511; for MIC: Staphylococcus aureus, read-out: MIC Staph. aureus SG511. How it is done:
as §1, §2

In assay [5] the test system is Pseudomonas aeruginosa ATCC 27853. Conditions: strain ATCC 27853; for MIC: Pseudomonas aeruginosa, ATCC27853. How it is done: as §1, §2
Assay [6] has as its system Pseudomonas aeruginosa SG 137. Conditions: strain SG137; for MIC: Pseudomonas aeruginosa. How it is done: as §1, §2
For assay [7], the system named is Stenotrophomonas maltophilia GN 12873. Conditions: strain GN12873; for MIC: Stenotrophomonas maltophilia, read-out: MIC Stenotroph. maltoph. GN12873. How it is done: as §1, §2

Turning to `CC(=O)Oc1cccc(C(=O)NCCCCCN(CC(=O)NC(C(=O)NC2C(=O)N3C2SC(C)(C)C3C(=O)O)c2ccccc2)C(=O)c2cccc(OC(C)=O)c2OC(C)=O)c1OC(C)=O` (centres unmarked) [Example 25, N-[3,9-Bis-(2,3-diacetoxybenzoyl)-3,9-diaza-nonanoyl]-ampicillin], the “MIC Klebsiella pneumoniae ATCC10031” value in assay [1] is less than 0.005 µg/mL. Besides, the “MIC Serratia marc. SG621” value in assay [2] worked out at 0.04 µg/mL (≈ 0.0429 µM). Also, in assay [3], the “MIC E. coli ATCC 25922” value is 0.16 µg/mL (≈ 0.172 µM). Moreover, the “MIC Staph. aureus SG511” value in assay [4] was 2.5 µg/mL (≈ 2.68 µM). Further, the “MIC Pseudomonas aeruginosa ATCC 27853” value in assay [5] came out at 0.16 µg/mL (≈ 0.172 µM). Moreover, the “MIC Pseudomonas aeruginosa SG137” value in assay [6] amounted to 0.04 µg/mL (≈ 0.0429 µM). In assay [7], the “MIC Stenotroph. maltoph. GN12873” value came to 0.02 µg/mL (≈ 0.0215 µM).

As to `CC(=O)Oc1cccc(C(=O)NCCN(CC(=O)N[C@@H](C(=O)N[C@@H]2C(=O)N3[C@@H]2SC(C)(C)[C@@H]3C(=O)O)c2ccccc2)C(=O)c2cccc(OC(C)=O)c2OC(C)=O)c1OC(C)=O` [Example 26, N-[3,6-Bis-(2,3-diacetoxybenzoyl)-3,6-diaza-hexanoyl]-ampicillin], in assay [1], the “MIC Klebsiella pneumoniae ATCC10031” value came out at 0.1 µg/mL (≈ 0.112 µM). Further, the “MIC Serratia marc. SG621” value in assay [2] worked out at 0.78 µg/mL (≈ 0.877 µM). Moreover, in assay [3], the “MIC E. coli ATCC 25922” value was found to be 0.78 µg/mL (≈ 0.877 µM). Moreover, the “MIC Staph. aureus SG511” value in assay [4] was determined as 3.12 µg/mL (≈ 3.51 µM). The “MIC Pseudomonas aeruginosa ATCC 27853” value in assay [5] worked out at 0.78 µg/mL (≈ 0.877 µM). The “MIC Pseudomonas aeruginosa SG137” value in assay [6] was found to be 0.4 µg/mL (≈ 0.449 µM). In assay [7], the “MIC Stenotroph. maltoph. GN12873” value came to 0.78 µg/mL (≈ 0.877 µM).

As a reminder, the MIC is the smallest concentration in the dilution series that meets the test's criterion for growth inhibition. Turning to `CC1(C)S[C@@H]2[C@H](NC(=O)[C@H](N)c3ccccc3)C(=O)N2[C@H]1C(=O)O` [ampicillin, reference compound], the MIC in assay [1] is 6.25 µg/mL (≈ 17.9 µM); in assay [2], 25 µg/mL (≈ 71.5 µM); in assay [3], 6.25 µg/mL (≈ 17.9 µM); in assay [4], 0.4 µg/mL (≈ 1.14 µM); in assay [5], greater than 100 µg/mL; in assay [6], greater than 100 µg/mL. Further, in assay [7], the minimal inhibitory concentration (MIC) was greater than 100 µg/mL.

As for `CC1(C)S[C@@H]2[C@H](NC(=O)[C@H](NC(=O)N3CCNC3=O)c3ccccc3)C(=O)N2[C@H]1C(=O)O` [azlocillin, reference compound], the MIC in assay [1] was found to be 6.25 µg/mL (≈ 13.5 µM); in assay [2], 50 µg/mL (≈ 108 µM); in assay [3] it was 6.25 µg/mL (≈ 13.5 µM); in assay [4], 0.4 µg/mL (≈ 0.867 µM); in assay [5], 6.25 µg/mL (≈ 13.5 µM); in assay [6], 6.25 µg/mL (≈ 13.5 µM). Also, in assay [7], the MIC was 25 µg/mL (≈ 54.2 µM).

On to `C[C@@H](O)[C@H]1C(=O)N2C(C(=O)O)=C(S[C@@H]3CN[C@H](C(=O)N(C)C)C3)[C@H](C)[C@H]12` [meropenem, reference compound], for which the MIC came out at 0.04 µg/mL (≈ 0.104 µM) in assay [1]; 0.06 µg/mL (≈ 0.156 µM) in assay [2]; 0.04 µg/mL (≈ 0.104 µM) in assay [3]; 0.1 µg/mL (≈ 0.261 µM) in assay [4]; 0.4 µg/mL (≈ 1.04 µM) in assay [5]; 0.2 µg/mL (≈ 0.522 µM) in assay [6]. Besides, the MIC in assay [7] was greater than 100 µg/mL.
